From ChEMBL document CHEMBL5725580, “Macrocyclic pyridazinone derivatives” (2018)
pIC50: −log10 of the molar value.

What was measured:
[1] = molecular target: Interleukin-1 receptor-associated kinase 1 (Homo sapiens, UniProt P51617); assay: IRAK1 Enzymatic Assay: IRAK1 is a human purified recombinant enzyme (His-TEV-IRAK1 (194-712)) In this assay, IRAK-1 hydrolyses ATP and autophosphorylates.Measurement of IRAK-1 inhibition is performed in streptavidin coated 384 well FlashPlate (PerkinElmer #SMP410A).His-TEV-IRAK-1 (15 ng/well), ATP (1 μM, [33P]ATP 0.25 μCi/well) and compounds in DMSO (range of concentrations from 20 μM to 1 nM) or controls (2% DMSO) are incubated for 3 hours at 30° C. in assay buffer: Hepes pH 7.0 50 mM, Fatty acid-free BSA 0.1%, Dithiothreitol DTT 2 mM, MgCl2 10 mM, EGTA 0.5 mM, Triton-X-100 0.01%. Kinase reaction is stopped by addition of EDTA. Supernatant is discarded, plates are washed three times with 150 mM NaCl and radioactivity is then measured in a Microbeta Trilux reader.
Interleukin-1 receptor-associated kinase 1, sequence (P51617 whole entry): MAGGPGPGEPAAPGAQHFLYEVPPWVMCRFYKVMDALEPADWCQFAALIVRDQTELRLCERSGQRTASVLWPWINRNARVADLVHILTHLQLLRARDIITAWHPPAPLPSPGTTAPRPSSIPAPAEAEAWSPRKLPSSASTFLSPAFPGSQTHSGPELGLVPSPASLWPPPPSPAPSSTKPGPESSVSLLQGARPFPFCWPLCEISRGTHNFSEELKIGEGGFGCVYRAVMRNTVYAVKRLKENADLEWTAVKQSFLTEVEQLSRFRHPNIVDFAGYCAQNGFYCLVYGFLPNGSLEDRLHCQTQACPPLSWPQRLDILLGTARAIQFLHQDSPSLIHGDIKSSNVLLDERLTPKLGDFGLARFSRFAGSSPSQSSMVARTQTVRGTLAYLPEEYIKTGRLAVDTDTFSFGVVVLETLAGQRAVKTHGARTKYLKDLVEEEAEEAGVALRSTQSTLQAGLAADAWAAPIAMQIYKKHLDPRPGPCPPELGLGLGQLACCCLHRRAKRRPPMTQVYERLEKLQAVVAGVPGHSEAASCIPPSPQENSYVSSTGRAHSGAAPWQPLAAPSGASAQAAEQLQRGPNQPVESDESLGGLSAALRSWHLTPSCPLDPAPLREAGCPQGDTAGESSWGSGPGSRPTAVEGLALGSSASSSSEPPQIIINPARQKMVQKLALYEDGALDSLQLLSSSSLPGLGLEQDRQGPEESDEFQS

[2] = molecular target: T1, Interleukin-1 receptor-associated kinase 4 (Homo sapiens, UniProt Q9NWZ3); assay: IRAK4 Enzymatic Assay: IRAK4 is a human purified recombinant enzyme ([…] IRAK4 hydrolyses ATP, autophosphorylates and phosphorylates a Serine/Threonine generic peptidic substrate (STK: 61ST1BLC from CisBio International based in Bagnols/Cèze FR).Measurement of IRAK-4 inhibition is performed in streptavidin coated 384 well FlashPlate (PerkinElmer #SMP410A). His-TEV-IRAK4 (20 ng/well), ATP (2 μM, [33P]ATP 0.25 μCi/well), STK1-biotin peptide (300 nM) and compounds in DMSO (range of concentrations from 20 μM to 1 nM) or controls (2% DMSO) are incubated for 3 hours at 30° C. in assay buffer: Hepes pH 7.0 50 mM, Fatty acid-free BSA 0.1%, Dithiothreitol DTT 2 mM, MgCl2 10 mM, EGTA 0.5 mM, Tween-20 0.01%, MnCl2 5 mM.Kinase reaction is stopped by addition of EDTA. Supernatant is discarded, plates are washed three times with 150 mM NaCl and radioactivity is then measured in a Microbeta Trilux reader.
T1 sequence (Q9NWZ3 whole entry): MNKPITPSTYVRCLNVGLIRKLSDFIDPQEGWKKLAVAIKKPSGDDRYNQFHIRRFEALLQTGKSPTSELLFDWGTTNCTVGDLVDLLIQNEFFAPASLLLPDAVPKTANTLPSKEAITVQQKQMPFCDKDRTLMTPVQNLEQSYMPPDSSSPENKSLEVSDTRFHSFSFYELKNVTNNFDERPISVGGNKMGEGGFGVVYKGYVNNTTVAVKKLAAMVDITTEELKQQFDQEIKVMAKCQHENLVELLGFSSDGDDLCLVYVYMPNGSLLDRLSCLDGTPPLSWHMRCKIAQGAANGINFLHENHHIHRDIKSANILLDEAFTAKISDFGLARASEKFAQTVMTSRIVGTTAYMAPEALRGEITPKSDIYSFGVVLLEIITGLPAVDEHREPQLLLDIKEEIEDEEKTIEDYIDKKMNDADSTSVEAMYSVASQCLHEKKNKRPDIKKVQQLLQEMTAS

Compound: O=C1Nc2nc3ccccc3n2CCn2cc(cn2)-c2ccc(=O)n(n2)Cc2cccc1c2
- pIC50 [1]: > 7.00
- pIC50 [2]: > 7.00
